Results taken from patent publication US9505749B2, “Quinazolinone compounds and derivatives thereof” (AMGEN INC., priority 2012, dated 2016).
pEC50, pIC50: −log10 of the molar value. Where two headings read alike, the source gives them in different places.

What was measured:
[1] = biological target: PARP1 (Homo sapiens (Human), UniProt P09874); experiment: PARP1 biochemical assay (Trevigen kit)
Description: PARP1 biochemical assay was purchased as a kit from Trevigen (cat.#4676-096-K) and used per manufacturers recommendations.

[2] = system: total β-catenin in SW480 colorectal cells; experiment: Total β-catenin MSD 96-well plate assay for SW480 cells; details: Homo sapiens, SW480, read-out: SW480-Total beta-catenin (TBC) IC50 IP
[3] = system: Axin2 accumulation in SW480 cells; experiment: Axin2 384 immunofluorescence assay; format: cell-based; details: Homo sapiens, read-out: Axin2 384 IF EC50
[4] = system: 8×TCF promoter-driven Firefly luciferase (Wnt reporter) in DLD-1 colorectal cells; experiment: DLD-1-STF assay, constitutively activated Wnt pathway reporter; format: cell-based; details: Homo sapiens
Protocol: DLD-1 colorectal cells engineered with an 8×TCF promoter-driven Firefly (FF) luciferase gene (Wnt reporter) along with an EF1a promoter-driven Renilla (RN) luciferase gene (control reporter) were used to measure the potency of tankyrase compounds in the context of the constitutively activated Wnt pathway due to mutated APC in colorectal cancer cells. The engineered DLD-1 cells were plated (45 μL) at a density of 10,000 cells/well in black, clear-bottom, 96-well View plates (PerkinElmer) in normal growth medium (RPMI with 10% FBS with no antibiotics). Tankyrase inhibitors (5 μL) were transferred to cells from a three-fold serially diluted compound plate. A 10-point dilution series was tested starting at a concentration (10 μM final concentration in assay). Column 6 contained only DMSO and served as the “HI” control. A potent Tankyrase inhibitor was used at a final concentration of 10 uM in column 12 which served as the “LO” control. […] The Dual-Glo Reagents (Promega) were added as directed by manufacturer to assay the FF and RN luciferase activity. Luciferase activity was measures using the EnVision multilabel plate reader (PerkinElmer).

[5] = biological target: PARP2 (Homo sapiens (Human), UniProt Q9UGN5); experiment: PARP2 biochemical assay (BPS kit)
[6] = biological target: 6×HIS-tankyrase1 (1091-1325) (Homo sapiens (Human), UniProt O95271); experiment: Tankyrase 1 biochemical assay (AlphaLisa, PARsylation); details: 400 nM NAD, 60 minutes at RT; read-out: TNKS1 IC50
[7] = biological target: 6×HIS-tankyrase 2 (946-1162) (Homo sapiens (Human), UniProt Q9H2K2); experiment: Tankyrase 2 biochemical assay (AlphaLisa, PARsylation); details: 250 nM NAD; read-out: TNKS2 IC50
[8] = DLD-1, read-out: DLD1-STF-FF/RL*100 IC50
[9] = DLD-1 cells, 40 to 48 hours, read-out: DLD1-STF-FF/RL*100 IC50

Chain of 6×HIS-tankyrase 2 (946-1162) (Q9H2K2 946-1162): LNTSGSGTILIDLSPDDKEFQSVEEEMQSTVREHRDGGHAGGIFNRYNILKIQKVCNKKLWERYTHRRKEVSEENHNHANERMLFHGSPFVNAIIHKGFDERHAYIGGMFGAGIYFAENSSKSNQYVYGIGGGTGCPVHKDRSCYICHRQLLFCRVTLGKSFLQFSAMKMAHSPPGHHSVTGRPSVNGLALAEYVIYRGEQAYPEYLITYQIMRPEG
Chain of PARP1 (P09874 whole entry): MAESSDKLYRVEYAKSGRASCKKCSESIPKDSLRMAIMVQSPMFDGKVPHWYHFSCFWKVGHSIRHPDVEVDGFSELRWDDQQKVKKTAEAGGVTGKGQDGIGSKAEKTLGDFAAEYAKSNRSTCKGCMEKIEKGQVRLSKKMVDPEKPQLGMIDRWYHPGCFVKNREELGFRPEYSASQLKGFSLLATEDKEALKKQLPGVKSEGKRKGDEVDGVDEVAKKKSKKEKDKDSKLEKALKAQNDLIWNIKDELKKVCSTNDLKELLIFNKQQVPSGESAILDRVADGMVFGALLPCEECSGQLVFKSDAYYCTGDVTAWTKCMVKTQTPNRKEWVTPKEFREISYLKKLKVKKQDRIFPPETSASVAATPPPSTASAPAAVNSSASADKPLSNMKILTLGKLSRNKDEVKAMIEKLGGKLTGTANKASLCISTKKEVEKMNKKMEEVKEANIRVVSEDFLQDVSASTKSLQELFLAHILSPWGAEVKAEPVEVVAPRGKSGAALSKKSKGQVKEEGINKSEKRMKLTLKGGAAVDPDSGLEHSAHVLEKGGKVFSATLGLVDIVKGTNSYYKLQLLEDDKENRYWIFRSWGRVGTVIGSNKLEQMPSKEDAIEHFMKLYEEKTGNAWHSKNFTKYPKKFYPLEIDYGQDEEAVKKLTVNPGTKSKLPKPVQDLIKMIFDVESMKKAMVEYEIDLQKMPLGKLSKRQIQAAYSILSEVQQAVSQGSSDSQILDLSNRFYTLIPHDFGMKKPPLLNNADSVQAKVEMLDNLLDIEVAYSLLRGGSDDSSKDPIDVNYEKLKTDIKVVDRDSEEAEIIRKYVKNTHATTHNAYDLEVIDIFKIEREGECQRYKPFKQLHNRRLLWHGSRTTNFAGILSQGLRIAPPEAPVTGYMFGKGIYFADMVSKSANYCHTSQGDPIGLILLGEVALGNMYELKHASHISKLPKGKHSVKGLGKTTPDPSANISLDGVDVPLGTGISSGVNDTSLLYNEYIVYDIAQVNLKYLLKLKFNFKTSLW
Chain of PARP2 (Q9UGN5 whole entry): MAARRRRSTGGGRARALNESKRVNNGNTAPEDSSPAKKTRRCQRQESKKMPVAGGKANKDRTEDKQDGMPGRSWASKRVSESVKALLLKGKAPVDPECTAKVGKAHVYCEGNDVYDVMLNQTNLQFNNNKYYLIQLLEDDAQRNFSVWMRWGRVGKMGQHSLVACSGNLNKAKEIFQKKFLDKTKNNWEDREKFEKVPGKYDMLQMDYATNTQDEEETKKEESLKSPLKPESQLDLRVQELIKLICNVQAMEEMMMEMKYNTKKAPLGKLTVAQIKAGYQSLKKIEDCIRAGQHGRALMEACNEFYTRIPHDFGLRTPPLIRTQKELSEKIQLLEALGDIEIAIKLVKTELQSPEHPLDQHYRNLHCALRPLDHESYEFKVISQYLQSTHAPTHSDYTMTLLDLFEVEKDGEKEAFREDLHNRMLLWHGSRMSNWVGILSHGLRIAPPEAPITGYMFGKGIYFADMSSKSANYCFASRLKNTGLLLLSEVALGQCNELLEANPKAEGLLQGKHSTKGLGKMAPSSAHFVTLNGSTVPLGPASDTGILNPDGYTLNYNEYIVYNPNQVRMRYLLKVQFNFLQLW
Chain of 6×HIS-tankyrase1 (1091-1325) (O95271 1091-1325): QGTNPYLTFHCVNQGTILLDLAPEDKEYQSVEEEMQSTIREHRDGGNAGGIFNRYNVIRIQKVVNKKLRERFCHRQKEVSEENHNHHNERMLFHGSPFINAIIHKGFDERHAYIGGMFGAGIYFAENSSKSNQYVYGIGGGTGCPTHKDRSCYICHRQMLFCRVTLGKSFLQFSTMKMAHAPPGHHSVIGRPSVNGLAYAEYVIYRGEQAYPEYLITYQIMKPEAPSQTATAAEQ

pIC50 [6]	pIC50 [7]	SMILES	pIC50 [1]	pIC50 [2]	pEC50 ([3]; SW480 cells, 24 hours)	pIC50 [4, 8]	pIC50 [5]	pIC50 [4, 9]	pEC50 ([3]; SW480, 24 h)
		O=C(CCCSc1nc2ccccc2c(=O)[nH]1)N[C@H]1CC[C@H](c2nnc(-c3ccccc3)o2)CC1 [Example 110, 4-((4-oxo-3,4-dihydroquinazolin-2-yl)thio)-N-((1r,4r)-4-(5-phenyl-1,3,4-oxadiazol-2-yl)cyclohexyl)butanamide]	6.42	6.98	6.88	8.75	5.84		
		O=C(CCSc1nc2c(c(=O)[nH]1)CCCC2)N[C@H]1CC[C@H](c2nnc(-c3ccccc3)o2)CC1 [Example 115, 3-((4-oxo-3,4,5,6,7,8-hexahydroquinazolin-2-yl)thio)-N-(trans-4-(5-phenyl-1,3,4-oxadiazol-2-yl)cyclohexyl)propanamide]	5.41	7.96	7.84	8.89	5.95		
		O=C(CCSc1nc2ccccc2c(=O)[nH]1)N[C@H]1CC[C@H](c2nnc(-c3ccccc3)o2)CC1 [Example 97, 3-((4-oxo-3,4-dihydroquinazolin-2-yl)thio)-N-(trans-4-(5-phenyl-1,3,4-oxadiazol-2-yl)cyclohexyl)propanamide]		8.43	8.41	9.22	5.61		
		O=C(CCSc1nc2ccccc2c(=O)[nH]1)N[C@H]1CC[C@H](Oc2cccc(Cl)c2)CC1 [Example 112, N-((1r,4r)-4-(3-chlorophenoxy)cyclohexyl)-3-((4-oxo-3,4-dihydroquinazolin-2-yl)thio) propanamide]	< 4.07	6.92	6.98	< 7.30			
		O=C(CCSc1nc2ccccc2c(=O)[nH]1)N[C@H]1CC[C@H](Oc2ccncc2)CC1 [Example 108, 3-((4-oxo-3,4-dihydroquinazolin-2-yl)thio)-N-((1 r,4r)-4-(pyridin-4-yloxy)cyclohexyl) propanamide]	5.56	8.16	8.17	9.17	5.49		
		N#Cc1ccc(O[C@H]2CC[C@H](NC(=O)CCSc3nc4ccccc4c(=O)[nH]3)CC2)cc1 [Example 106, N-(trans-4-(4-cyanophenoxy)cyclohexyl)-3-((4-oxo-3,4-dihydroquinazolin-2-yl)thio) propanamide]		8.72	8.40	9.56	5.75		
		N#Cc1ccc(O[C@H]2CC[C@H](NC(=O)CCSc3nc4ccccc4c(=O)[nH]3)CC2)cc1Cl [Example 114, N-((1r,4r)-4-(3-chloro-4-cyanophenoxy)cyclohexyl)-3-((4-oxo-3,4-dihydroquinazolin-2-yl)thio)propanamide]	< 4.07	8.09	8.07	8.97			
		O=C(CCSc1nc2ccccc2c(=O)[nH]1)N[C@H]1CC[C@H](Oc2ccccn2)CC1 [Example 107, 3-((4-oxo-3,4-dihydroquinazolin-2-yl)thio)-N-((1 r,4r)-4-(pyridin-2-yloxy)cyclohexyl) propanamide]	< 4.07	7.81	7.78	8.88	5.47		
8.98	9.28	N#Cc1ccc(O[C@H]2CC[C@H](NC(=O)CCCc3nc4ccccc4c(=O)[nH]3)CC2)cc1Cl [Example 64, N-(trans-4-(3-chloro-4-cyanophenoxy)cyclohexyl)-4-(4-oxo-3,4-dihydro-2-quinazolinyl)butanamide]	6.59	7.58	7.22		6.54	8.90	
		O=C(CCCc1nc2ccccc2c(=O)[nH]1)N[C@H]1CC[C@H](n2c(=O)[nH]c3cc(Cl)ccc32)CC1 [Example 74, N-((1r,4r)-4-(5-chloro-2-oxo-2,3-dihydro-1H-benzo[d]imidazol-1-yl)cyclohexyl)-4-(4-oxo-3,4-dihydroquinazolin-2-yl)butanamide trifluoroacetic acid]		8.18				8.80	8.27
		N#Cc1cc(O[C@H]2CC[C@H](NC(=O)CCSc3nc4ccccc4c(=O)[nH]3)CC2)ccc1Cl [Example 113, N-((1r,4r)-4-(4-chloro-3-cyanophenoxy)cyclohexyl)-3-((4-oxo-3,4-dihydroquinazolin-2-yl)thio)propanamide]	< 4.07	7.62	7.25	< 7.30			
8.16	8.47	Cc1ccc2[nH]c(=O)n(C3CCN(C(=O)CCCc4nc5ccccc5c(=O)[nH]4)CC3)c2c1 [Example 7, 2-(4-(4-(6-methyl-2-oxo-2,3-dihydro-1H-benzimidazol-1-yl)-1-piperidinyl)-4-oxobutyl)-4(3H)-quinazolinone]	5.71	6.20	6.19		6.72		
7.82	8.47	COc1ccc(-c2nnc(C3CCN(C(=O)CCCc4nc5ccccc5c(=O)[nH]4)CC3)o2)cc1 [Example 15, 2-(4-(4-(5-(4-methoxyphenyl)-1,3,4-oxadiazol-2-yl)-1-piperidinyl)-4-oxobutyl)-4(3H)-quinazolinone]	5.50	7.06	6.90		5.92		
